Laboratory results from US20260248894A1, “COMBINATION THERAPY FOR PRETERM INFANTS” (Oak Hill Bio Ltd, priority 2022, published 2026).
Where a name gives a salt, the structure may show the parent alone. Read-outs that look alike come from different tables or passages of the source.

Experiments:
[1] = molecular target: T1, rhIGF-1/rhIGFBP-3 drug product (Homo sapiens, UniProt P05019+P17936, DEL119-195); assay: In vitro physical compatibility of test medications mixed with rhIGF-1/rhIGFBP-3 (visual observation, OD320, pH, osmolality); type: physicochemical; settings: for visual observation (and OD320) upon mixing: mixture with rhIGF-1/rhIGFBP-3 drug product
T1 construct: purchased Takeda, Lexington, MA, USA

[2] = molecular target: T1, rhIGF-1/rhIGFBP-3 drug product; assay: Small-molecule chemical compatibility: small-molecule content post mixing by RP-HPLC-UV or ion chromatography; type: physicochemical; settings: post mixing with rhIGF-1/rhIGFBP-3 drug product, last specified time point(s)
[3] = molecular target: T1, rhIGF-1/rhIGFBP-3 drug product; assay: Protein-specific (mass spectrometry-based) analyses of rhIGF-1/rhIGFBP-3 chemical compatibility and the final compatibility decision; type: physicochemical
insulin [4] = settings: no compatibility data available with insulin
insulin [5] = settings: cited from earlier work
[6] = mixed with rhIGF-1/rhIGFBP-3 drug product at representative clinical doses, room temperature

T1 sequence (P05019 49-118 limits assumed, stated change not applied): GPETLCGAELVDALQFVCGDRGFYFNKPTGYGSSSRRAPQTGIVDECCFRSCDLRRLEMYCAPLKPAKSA
T1 sequence (P17936 28-291, stated change not applied): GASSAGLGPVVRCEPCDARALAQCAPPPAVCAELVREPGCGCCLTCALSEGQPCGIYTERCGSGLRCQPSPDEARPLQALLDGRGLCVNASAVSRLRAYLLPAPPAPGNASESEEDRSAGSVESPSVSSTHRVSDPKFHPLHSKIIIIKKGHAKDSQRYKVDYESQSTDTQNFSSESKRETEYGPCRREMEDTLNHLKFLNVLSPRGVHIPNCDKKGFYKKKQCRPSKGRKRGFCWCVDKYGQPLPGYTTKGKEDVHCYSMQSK

Row | Compound | physical compatibility with rhIGF-1/rhIGFBP-3 ([1]; conditions and doses tested) | Physical compatibility [1, 6] | Chemical compatibility for small-molecule content (RP-HPLC) [2] | also measured
1 | NCC[C@H](O)C(=O)N[C@@H]1C[C@H](N)[C@@H](O[C@H]2O[C@H](CN)[C@@H](O)[C@H](O)[C@H]2O)[C@H](O)[C@H]1O[C@H]1O[C@H](CO)[C@@H](O)[C@H](N)[C@H]1O.O=S(=O)(O)O.O=S(=O)(O)O [Amikacin sulfate] | considered incompatible | No | Yes (Chemical incompatibility was considered to be a loss of the small-molecule content of ~10% or more over the defined testing period) | decrease in pH of mixtures compared with controls ([1]; mixture with rhIGF-1/rhIGFBP-3): Mixtures demonstrated a decrease in pH of ~0.6 units
2 | CC1(C)S[C@@H]2[C@H](NC(=O)[C@H](N)c3ccccc3)C(=O)N2[C@H]1C(=O)O [Ampicillin sodium] | considered incompatible | No | Yes (Chemical incompatibility was considered to be a loss of the small-molecule content of ~10% or more over the defined testing period) | pH change post mixing (in words) ([1]; mixture with rhIGF-1/rhIGFBP-3): Observed change in pH of rhIGF-1/rhIGFBP-3
3 | Cn1c(=O)c2c(ncn2C)n(C)c1=O.O=C(O)CC(O)(CC(=O)O)C(=O)O [Caffeine citrate] |  |  |  | Physical compatibility [1]: Yes^a; pH difference of mixed samples compared with the control [1]: demonstrated ~1.0 unit difference compared; physical compatibility with rhIGF-1/rhIGFBP-3 [1]: physical compatibility was established
4 | CC(CCc1ccc(O)cc1)NCCc1ccc(O)c(O)c1 (stereo not shown) [Dobutamine hydrochloride] | considered incompatible | No | Yes (Chemical incompatibility was considered to be a loss of the small-molecule content of ~10% or more over the defined testing period) | visual observation (and OD320) upon mixing [1]: physical compatibility (no precipitation, no; final compatibility decision informed by protein-specific studies / sodium (meta)bisulfite in the formulation [3]: medication is considered incompatible
5 | Cl.NCCc1ccc(O)c(O)c1 [Dopamine hydrochloride] |  |  |  | Physical compatibility [1]: No; pH change post mixing (in words) [1]: A dopamine dose-dependent physical change; physical compatibility with rhIGF-1/rhIGFBP-3 [1]: considered incompatible; effect on rhIGF-1/rhIGFBP-3 drug product in protein-specific analyses [3]: data demonstrated an impact on the rhIGF-
6 | OC(Cn1cncn1)(Cn1cncn1)c1ccc(F)cc1F [Fluconazole] | physical compatibility was established | Yes | Yes (Chemical incompatibility was considered to be a loss of the small-molecule content of ~10% or more over the defined testing period) | expected reaction on the basis of theoretical evaluation and the solution pH (insulin [4]): a reaction is not expected
7 | NS(=O)(=O)c1cc(C(=O)O)c(NCc2ccco2)cc1Cl [Furosemide] | considered incompatible | No | Yes (Chemical incompatibility was considered to be a loss of the small-molecule content of ~10% or more over the defined testing period) | time after mixing to cloudiness / turbidity ([1]; mixture with rhIGF-1/rhIGFBP-3): ≤ 30 min; visual observation (and OD320) upon mixing [1]: Cloudiness observed
8 | C[C@@H](O)[C@H]1C(=O)N2C(C(=O)O)=C(S[C@@H]3CN[C@H](C(=O)N(C)C)C3)[C@H](C)[C@H]12 [Meropenem] | considered incompatible | No | Yes (Chemical incompatibility was considered to be a loss of the small-molecule content of ~10% or more over the defined testing period) | pH change post mixing ([1]; mixture with rhIGF-1/rhIGFBP-3): Observed pH change of ~2.4 post mixing,
9 | Cc1ncc2n1-c1ccc(Cl)cc1C(c1ccccc1F)=NC2 [Midazolam, Midazolam hydrochloride] |  |  |  | Physical compatibility [1]: Yes; physical compatibility with rhIGF-1/rhIGFBP-3 [1]: physical compatibility was established; compatibility with insulin (insulin [5]): established
10 | NC[C@H](O)c1ccc(O)c(O)c1 [Norepinephrine bitartrate] |  |  |  | pH change post mixing (in words) [1]: Only the lowest dose was physically; physical compatibility with rhIGF-1/rhIGFBP-3 [1]: considered incompatible
11 | CC1(C)S[C@@H]2[C@H](NC(=O)Cc3ccccc3)C(=O)N2[C@H]1C(=O)[O-].[K+] [Penicillin G, Penicillin G potassium] | considered incompatible | No | Yes (Chemical incompatibility was considered to be a loss of the small-molecule content of ~10% or more over the defined testing period) | pH shift ([1]; highest penicillin G dose of 125,000 Units/kg/30 min): pH shift (up to 1.3 pH units for the highest
12 | CN[C@H](CC(C)C)C(=O)N[C@H]1C(=O)N[C@@H](CC(N)=O)C(=O)N[C@H]2C(=O)N[C@H]3C(=O)N[C@H](C(=O)N[C@H](C(=O)O)c4cc(O)cc(O)c4-c4cc3ccc4O)[C@H](O)c3ccc(c(Cl)c3)Oc3cc2cc(c3O[C@@H]2O[C@H](CO)[C@@H](O)[C@H](O)[C@H]2O[C@H]2C[C@](C)(N)[C@H](O)[C@H](C)O2)Oc2ccc(cc2Cl)[C@H]1O [Vancomycin hydrochloride] |  |  |  | Physical compatibility [1]: Yes; compatibility with insulin (insulin [5]): established
13 | Gentamicin |  |  | Yes (Chemical incompatibility was considered to be a loss of the small-molecule content of ~10% or more over the defined testing period) | 
14 | Insulin | physical compatibility was established | Yes | Yes (Chemical incompatibility was considered to be a loss of the small-molecule content of ~10% or more over the defined testing period) | 
15 | rhIGF-1/rhIGFBP-3 drug product: recombinant human protein complex of insulin-like growth factor-1 (IGF-1) and insulin-like growth factor binding protein-3 (IGFBP-3) |  |  |  | pH value of the unmixed product ([1]; not in the mixture): 5.5
